Where two headings read alike, the source gives them in different places.
How the values were obtained:
[1] = Steady-state cellular uptake (Kp) in suspended HH; format: in vitro ADME; settings: human, suspended human hepatocytes; for Kp at 5 min, 0.5 μM: RO compounds, parameters matched to the IC50 assay
Experimental: The Kp in suspended HH was measured similarly to previous reports with some modifications ([7],[18]). Briefly, cells were rinsed twice with […] 10 mM HEPES. One hundred microliters of cell suspension (5 × 10^6 cells/mL) was added to a conical 96-well plate, and 100 μL of 1 μM drug solutions in Hank’s buffered salt solution (HBSS) buffered with 10 mM HEPES was added (resulting in a 0.5 μM final concentration). All incubations were performed in triplicates on up to three independent occasions. Full-time curves were established at 1, 3, 7.5, 15, 30, and 45 min to determine Kp at equilibrium. For single time point measurements, the incubation time was matched to the CYP inhibition assays. A sample of the medium was removed after centrifugation in a pre-cooled centrifuge at 4°C (100×g, 5 min), and ten-fold diluted with a mixture of acetonitrile and water (60:40) containing the internal standard for determination of Cmedium. The remaining supernatant was removed by aspiration and cells were washed twice with ice-cold buffer. The intracellular compound was extracted using the acetonitrile to water to internal standard mixture for determination of the amount of drug in the cells (Acell). Protein content (Pcell) was quantified using the BCA assay in representative wells to establish the cellular volume (Vcell), assuming 6.5 μL/mg protein ([23]). Finally, Kp was calculated using Eq. (2)2 Kp=Acell/Vcell∙Pcell/Cmedium

[2] = Fraction unbound to microsomes (fu,mic), equilibrium dialysis, HLM 0.2 mg/mL; settings: both, human
[3] = Intracellular unbound drug accumulation ratio (Kpuu) in suspended HH; format: in vitro ADME, human; settings: for Kp uu: human, suspended human hepatocytes, suspended HH
Experimental: Kpuu was determined as previously described ([7],[18]) using Eq. (1):
1 Kpuu=Kp∙fu,cell/fu,medium where Kp is the steady-state cellular uptake, and fu,cell the fraction of unbound compound in the cell, determined as described below. The fraction unbound of the compound in the medium (fu,medium) was equal to 1 as no serum proteins or other drug binding components were added to the incubation media.

pKa of RO compounds = format: physicochemical; settings: method not stated
Description: Table II Properties of the RO Discovery Compound Series and Results in HLM and Suspended HH | column: pKa

Papp of RO compounds = format: in vitro ADME; settings: not told, method not stated
Description: Table II Properties of the RO Discovery Compound Series and Results in HLM and Suspended HH | column: Papp (× 10^−6 cm/s)

[4] = Fraction unbound in the cell (fu,cell), homogenization method/equilibrium dialysis; format: in vitro ADME, human; settings: HH homogenate; for fraction unbound at 4 h, 0.5 μM / fraction unbound at 0.5 μM: human, human hepatocyte cell homogenate
[5] = set-up: method as in Brown et al, DMD, 2010; settings: rat hepatocytes; ref Brown et al, DMD, 2010; cited from earlier work
[6] = Kp and mass balance in HH in presence and absence of CYP inhibitor ABT; format: in vitro ADME, human
Experimental: S 4 Kp in presence of metabolic inhibitor ABT
A batch of HH derived from a single donor and a pooled batch were each used to measure Kp at 45
minutes in presence and absence of the CYP inhibitor ABT.[1]
Time curves over 45 minutes were established in plated HH. […]

CYP3A4 [7] = settings: read-out: Ki (Ki,app); RLM; MDZ/1'-OH; ref [2] Brown et al., Drug Metab Dispos 2010; cited from earlier work
[8] = set-up: method as in Brown et al, DMD, 2010; settings: rat; calculated from Kilford et al. (2008); ref Brown et al, DMD, 2010; cited from earlier work
CYP3A4 [9] = tested on: CYP3A4; set-up: method as in earlier work; settings: RH; MDZ/1'-OH; ref [2] Brown et al., Drug Metab Dispos 2010; read-out: Ki (Ki,app); cited from earlier work
[10] = set-up: method as in Brown et al., Drug Metab Dispos 2010; settings: rat liver microsomes; ref Brown et al., Drug Metab Dispos 2010; cited from earlier work
CYP2C9 = CYP2C9 inhibition assay in HLM and HH (diclofenac); format: biochemical, human; settings: diclofenac as substrate
Experimental: After the addition of 20 μL of 10 mM NADPH, the plate was incubated for 5 min. The reaction was stopped by adding 200 μL of acetonitrile containing an internal standard. After centrifugation of 10 min at 6200×g, the concentration of the substrate in the samples was determined by LC-MS (Sciex API4000, see S6 for LC-MS parameters).
(§1) For HH, 50 μL of a suspension of cryopreserved HH (3 × 10^6 cells/mL) were added to a 96-well round bottom plate and pre-incubated for 20 min in Williams E medium (without FBS). Fifty microliters of a × 3 concentrated test compound-solution and 50 μL of × 3 concentrated substrate (diclofenac for CYP2C9, midazolam for CYP3A4 and tacrine for CYP1A2) were added and the plate was incubated on a shaker at 37°C, 5% CO2, and 900 rpm. Incubations were stopped after 5 min by transferring 100 μL of the suspension to a fresh plate and adding 100 μL of acetonitrile containing the internal standard and then analyzed as above.

CYP1A2 [11] = tested on: CYP1A2; set-up: method as in earlier work; settings: RH; TPH/1,3-DMU; ref [2] Brown et al., Drug Metab Dispos 2010; read-out: Ki (Ki,app); cited from earlier work
CYP1A2 [12] = tested on: CYP1A2; set-up: method as in earlier work; settings: RLM; TPH/1,3-DMU; ref [2] Brown et al., Drug Metab Dispos 2010; read-out: Ki (Ki,app); cited from earlier work
CYP1A2 [13] = target: T1, CYP1A2 (Homo sapiens, UniProt P05177); experiment: CYP1A2 inhibition in HLM; format: biochemical; settings: average values from table S1; read-out: IC50,app HLM
T1 sequence (P05177 whole entry): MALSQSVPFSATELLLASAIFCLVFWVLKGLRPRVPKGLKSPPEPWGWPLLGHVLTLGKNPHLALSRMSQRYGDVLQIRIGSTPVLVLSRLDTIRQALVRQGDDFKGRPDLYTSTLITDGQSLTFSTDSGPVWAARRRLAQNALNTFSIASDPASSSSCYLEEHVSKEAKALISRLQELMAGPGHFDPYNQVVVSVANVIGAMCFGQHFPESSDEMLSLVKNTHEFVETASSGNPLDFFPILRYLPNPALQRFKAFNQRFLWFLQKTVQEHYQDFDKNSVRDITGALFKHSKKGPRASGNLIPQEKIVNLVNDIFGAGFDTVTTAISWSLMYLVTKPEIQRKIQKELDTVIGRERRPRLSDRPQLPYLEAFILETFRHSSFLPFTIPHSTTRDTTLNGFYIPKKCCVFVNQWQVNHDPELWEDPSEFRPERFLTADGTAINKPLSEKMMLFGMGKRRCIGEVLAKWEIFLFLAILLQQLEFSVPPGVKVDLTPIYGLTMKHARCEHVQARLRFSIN

CYP1A2 [14] = target: T1, CYP1A2; experiment: CYP1A2 inhibition in suspended HH; format: cell-based; settings: TCR/1'-OH, source [3] In house
Experimental: as §1

[15] = Kpuu in rat hepatocytes derived from literature Kp; format: in vitro ADME; settings: literature rat Kp x experimental (human) fu,cell
[16] = azole series (itraconazole 24 h dialysis)

| SMILES | Kp at 5 min, 0.5 μM [1] | fraction unbound at 4 h, 0.5 μM ([2]; human liver microsomes) | Kp uu ([3]; RO compounds) | pKa (pKa of RO compounds) | Papp (Papp of RO compounds) [×10⁻⁶ cm/s] | fraction unbound at 4 h, 0.5 μM ([4]; RO compounds) | also measured |
| --- | --- | --- | --- | --- | --- | --- | --- |
| Cn1c(S(=O)(=O)NC(=O)Nc2ncc(Br)s2)cc2ccccc21 [RO06] | 61.6 ± 38.6 | 0.36 ± 0.11 | 0.24 ± 0.1 | 2.8 | 3 | 0.0039 ± 0.0003 | – |
| Cc1c(O)cccc1C(=O)N[C@@H](CSc1ccccc1)[C@H](O)CN1C[C@H]2CCCC[C@H]2C[C@H]1C(=O)NC(C)(C)C [Nelfinavir] | – | 0.04 ± 0.02 | – | – | – | – | Kp [5]: 3352; Kp in presence or absence of ABT ([6]; HH, 45 minutes): unaffected; change of mass balance upon addition of ABT ([6]; suspended HH, 45 minutes): approximately doubled; Ki (CYP3A4 [7]): […]; fu,cell [8]: 0.035; Ki (CYP3A4 [9]): […]; Kpuu with wash buffers at 4 and 37°C, with and without albumin ([3]; 45 minutes, except 4°C without albumin vs 37°C containing albumin): did not differ; fu,mic [10]: 0.022; fu,cell ([4]; 0.5 μM, reference compounds): 0.00025 ± 0.00005; fraction unbound at 4 h, 0.5 μM ([4]; 0.5 μM, reference compounds): 0.0002 |
| COc1cc(C)c(-c2sc(S(=O)(=O)NC(=O)Nc3ncc(Br)s3)cc2C)cn1 [RO07] | 41.9 ± 4.8 | 0.84 ± 0.06 | 0.16 ± 0.01 | 3.17 | 4 | 0.00392 ± 3e-05 | – |
| CC(=O)N1CCN(c2ccc(OCC3COC(Cn4ccnc4)(c4ccc(Cl)cc4Cl)O3)cc2)CC1 (centres unmarked) [Ketoconazole, reference compound] | – | – | – | – | – | – | fraction unbound at 0.5 μM ([2]; microsomes): 0.32 ± 0.12; fraction unbound at 0.5 μM [4, 16]: 0.004 ± 0.001 |
| CC[C@@H]([C@H](C)O)n1ncn(-c2ccc(N3CCN(c4ccc(OC[C@@H]5CO[C@@](Cn6cncn6)(c6ccc(F)cc6F)C5)cc4)CC3)cc2)c1=O [Posaconazole, reference compound] | – | – | – | – | – | – | Kp at 0.5 μM ([1]; azole series): 6930 ± 1240; fraction unbound at 0.5 μM ([2]; human liver microsomes): 0.21 ± 0.11; Kp uu ([3]; azole series): 37.6 ± 12.8; fraction unbound at 0.5 μM [4, 16]: 0.005 ± 0.003 |
| COCc1oc(S(=O)(=O)NC(=O)Nc2ncc(Br)s2)cc1C [RO03] | 17.9 ± 8.9 | 0.41 ± 0.03 | 0.3 ± 0.08 | 2.91 | 9 | 0.017 ± 0.001 | difference of IC50,app between HH and HLM (CYP2C9): identical |
| COCc1oc(S(=O)(=O)NC(=O)Nc2nc(C)c(Br)s2)cc1C [RO04] | 27.6 ± 26.1 | 0.45 ± 0.11 | 0.46 ± 0.65 | 2.8 | 13 | 0.02 ± 0.01 | difference of IC50,app between HH and HLM (CYP2C9): identical |
| O=C(Nc1ncc(Br)s1)NS(=O)(=O)c1cc2cccc(Cl)c2s1 [RO05] | 18.5 ± 4.4 | 0.23 ± 0.02 | 0.039 ± 0.003 | 2.76 | 2 | 0.0021 ± 0.0003 | – |
| Cc1cccc2cc(S(=O)(=O)NC(=O)Nc3ncc(Br)s3)sc12 [RO02] | 47.3 ± 1.1 | 0.36 ± 0.09 | 0.0613 ± 0.0002 | 3.14 | 2 | 0.0013 ± 7e-05 | – |
| Cc1cccc(S(=O)(=O)NC(=O)Nc2snc(C)c2Br)c1 [RO08] | 22.2 ± 4.3 | 0.41 ± 0.09 | 0.21 ± 0.05 | 2.66 | 22 | 0.009 ± 0.004 | – |
| COCCc1sc(S(=O)(=O)NC(=O)Nc2snc(C)c2Br)cc1C [RO09] | 11.7 ± 2 | 0.97 ± 0.41 | 0.088 ± 0.003 | 2.49 | 2 | 0.0075 ± 0.0006 | difference of IC50,app between HH and HLM (CYP2C9): 12 fold |
| CCC(C)n1ncn(-c2ccc(N3CCN(c4ccc(OCC5COC(Cn6cncn6)(c6ccc(Cl)cc6Cl)O5)cc4)CC3)cc2)c1=O (centres unmarked) [Itraconazole, reference compound] | – | – | – | – | – | – | Kp at 0.5 μM ([1]; azole series): 2720 ± 1570; fraction unbound at 0.5 μM ([2]; human liver microsomes): 0.21 ± 0.13; Kp uu ([3]; azole series): 7.5 ± 6.3; fu,cell [4, 16]: 0.003 ± 0.002 |
| Cc1cccc(S(=O)(=O)NC(=O)Nc2cc(Br)cc(N)n2)c1 [RO01] | 24 ± 2.2 | 0.42 ± 0.06 | 0.357 ± 0.003 | 5.41 | 10 | 0.0149 ± 0.0003 | difference of IC50,app between HH and HLM (CYP2C9): identical |
| CCn1cc(C(=O)O)c(=O)c2cc(F)c(N3CCNCC3)nc21 [Enoxacin] | – | 0.53 ± 0.13 | – | – | – | – | Kp [5]: 20; mass balance ([6]; hepatocyte experiments, suspended HH, without ABT): ~ 100%; Kp at 0.5 μM ([1]; 0.5 μM, reference compounds): 7.4 ± 1.1; Ki (CYP1A2 [11]): 120 ± 65 µM; Ki (CYP1A2 [12]): 2800 ± 1200 µM; fu,cell [8]: 0.99; IC50 (CYP1A2 [13]): 2140 ± 370 µM; IC50 (CYP1A2 [14]): 422 ± 93 µM; fu,mic [10]: 0.99; Kp uu [15]: 20; fraction unbound at 4 h, 0.5 μM ([4]; 0.5 μM, reference compounds): 1 |

— PMC6581936, “Impact of Intracellular Concentrations on Metabolic Drug-Drug Interaction Studies” (The AAPS Journal, 2019)
